Like-named read-outs stand apart in the source and are kept apart here.
How the values were obtained:
human SCD5 = molecular target: T1, human SCD5 (Homo sapiens, UniProt Q86SK9); assay: Growth inhibition of yeast strain expressing human SCD5 as sole desaturase (OLE1 deleted), OD600 readout; format: cell-based
T1 construct: expressed in transfected cells; host or cells: yeast strain with OLE1 deleted, plasmid-borne human SCD5 (selected in SD-Ura)
T1 sequence (Q86SK9 1-330): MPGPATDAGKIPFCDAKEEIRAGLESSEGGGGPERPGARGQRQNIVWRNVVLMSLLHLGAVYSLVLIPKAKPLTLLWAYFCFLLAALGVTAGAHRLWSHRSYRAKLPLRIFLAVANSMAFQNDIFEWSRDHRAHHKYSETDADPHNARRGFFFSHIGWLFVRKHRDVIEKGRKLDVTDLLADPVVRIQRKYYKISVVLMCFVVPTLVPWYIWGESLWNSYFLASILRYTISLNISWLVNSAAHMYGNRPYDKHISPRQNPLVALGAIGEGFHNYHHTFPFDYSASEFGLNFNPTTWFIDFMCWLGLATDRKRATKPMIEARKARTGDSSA

human SCD1 = molecular target: T2, human SCD1 (Homo sapiens, UniProt O00767); assay: Growth inhibition of yeast strain expressing human SCD1 as sole desaturase (OLE1 deleted), OD600 readout; format: cell-based
T2 construct: expressed in transfected cells; host or cells: yeast strain with OLE1 deleted, plasmid-borne human SCD1 (selected in SD-Ura)
T2 sequence (O00767 1-359): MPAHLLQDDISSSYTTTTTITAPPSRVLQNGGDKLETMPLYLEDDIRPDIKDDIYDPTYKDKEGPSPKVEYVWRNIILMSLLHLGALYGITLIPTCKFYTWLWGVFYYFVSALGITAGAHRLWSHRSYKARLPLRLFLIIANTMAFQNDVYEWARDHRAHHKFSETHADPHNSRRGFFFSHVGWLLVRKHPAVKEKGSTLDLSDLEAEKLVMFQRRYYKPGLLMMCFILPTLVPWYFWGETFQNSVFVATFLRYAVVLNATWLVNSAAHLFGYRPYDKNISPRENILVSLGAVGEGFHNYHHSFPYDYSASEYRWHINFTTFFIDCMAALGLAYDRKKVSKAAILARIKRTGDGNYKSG

[1] = yeast strain expressing human SCD1 as sole desaturase, growth (OD600) after 40 h at 30° C., read-out: SCD1 IC50
[2] = yeast strain expressing human SCD5 as sole desaturase, growth (OD600) after 40 h at 30° C., read-out: SCD5 IC50

SMILES | IC50 (human SCD5; SCD5 IC50) [nM] | IC50 (human SCD1; [1]) [nM] | IC50 (human SCD1; SCD1 IC50) [nM] | IC50 (human SCD5; [2]) [nM]
COc1ccc(Cc2ccc(NC(=O)c3ccc(=O)n(C)c3)nc2)cn1 [Compound 58, N-(5-((6-methoxypyridin-3-yl)methyl)pyridin-2-yl)-1-methyl-6-oxo-1,6-dihydropyridine-3-carboxamide] | 35600 | > 45000 | – | –
Cn1cc(C(=O)Nc2ccc(Cc3cc(F)cc(F)c3)cn2)ccc1=O [Compound 59, N-(5-(3,5-difluorobenzyl)pyridin-2-yl)-1-methyl-6-oxo-1,6-dihydropyridine-3-carboxamide] | 10 | – | 310 | –
Cn1cc(C(=O)Nc2ccc(Cc3ccc(F)c(Cl)c3)cn2)ccc1=O [Compound 60, N-(5-(3-chloro-4-fluorobenzyl)pyridin-2-yl)-1-methyl-6-oxo-1,6-dihydropyridine-3-carboxamide] | 650 | – | 4380 | –
Cn1cc(C(=O)Nc2ccc(Cc3cccc(C#N)c3)cn2)ccc1=O [Compound 61, N-(5-(3-cyanobenzyl)pyridin-2-yl)-1-methyl-6-oxo-1,6-dihydropyridine-3-carboxamide] | 600 | – | 7520 | –
Cn1cc(C(=O)Nc2ccc(Cc3ccc4c(c3)COC4)cn2)ccc1=O [Compound 62, N-(5-((1,3-dihydroisobenzofuran-5-yl)methyl)pyridin-2-yl)-1-methyl-6-oxo-1,6-dihydropyridine-3-carboxamide] | 2060 | – | 2340 | –
Cn1cc(C(=O)Nc2ccc(Cc3ccc(C(F)(F)F)cc3)cn2)ccc1=O [Compound 63, 1-methyl-6-oxo-N-(5-(4-(trifluoromethyl)benzyl)pyridin-2-yl)-1,6-dihydropyridine-3-carboxamide] | 320 | – | 380 | –
Cn1cc(C(=O)Nc2ccc(Cc3ccc(Cl)cc3)cn2)ccc1=O [Compound 64, N-(5-(4-chlorobenzyl)pyridin-2-yl)-1-methyl-6-oxo-1,6-dihydropyridine-3-carboxamide] | 60 | – | 560 | –
Cn1cc(C(=O)Nc2ccc(CC3CCCCC3)cn2)ccc1=O [Compound 65, N-(5-(cyclohexylmethyl)pyridin-2-yl)-1-methyl-6-oxo-1,6-dihydropyridine-3-carboxamide] | 140 | – | 1210 | –
Cn1cc(C(=O)Nc2ccc(Cc3ccc(F)c(F)c3)cn2)ccc1=O [Compound 66, N-(5-(3,4-difluorobenzyl)pyridin-2-yl)-1-methyl-6-oxo-1,6-dihydropyridine-3-carboxamide] | 10 | – | 1440 | –
CCn1nc(C(=O)Nc2ccc(Cc3cccc(Cl)c3)cn2)ccc1=O [Compound 67, N-(5-(3-chlorobenzyl)pyridin-2-yl)-1-ethyl-6-oxo-1,6-dihydropyridazine-3-carboxamide] | – | 440 | – | 120
CCn1nc(C(=O)Nc2ccc(Cc3cccc(F)c3)cn2)ccc1=O [Compound 68, 1-ethyl-N-(5-(3-fluorobenzyl)pyridin-2-yl)-6-oxo-1,6-dihydropyridazine-3-carboxamide] | – | 1650 | – | 260
CCn1nc(C(=O)Nc2ccc(Cc3cc(F)cc(C#N)c3)cn2)ccc1=O [Compound 69, N-(5-(3-cyano-5-fluorobenzyl)pyridin-2-yl)-1-ethyl-6-oxo-1,6-dihydropyridazine-3-carboxamide] | – | > 45000 | – | 270
CCn1nc(C(=O)Nc2ccc(Cc3ccc(Cl)c(Cl)c3)cn2)ccc1=O [Compound 70, N-(5-(3,4-dichlorobenzyl)pyridin-2-yl)-1-ethyl-6-oxo-1,6-dihydropyridazine-3-carboxamide] | – | 2900 | – | 490
CCCn1nc(C(=O)Nc2ccc(Cc3cccc(F)c3)cn2)ccc1=O [Compound 71, N-(5-(3-fluorobenzyl)pyridin-2-yl)-6-oxo-1-propyl-1,6-dihydropyridazine-3-carboxamide] | – | > 45000 | – | 3910
CC(C)n1nc(C(=O)Nc2ccc(Cc3cccc(F)c3)cn2)ccc1=O [Compound 72, N-(5-(3-fluorobenzyl)pyridin-2-yl)-1-isopropyl-6-oxo-1,6-dihydropyridazine-3-carboxamide] | 390 | – | 4700 | –
CC(C)n1nc(C(=O)Nc2ccc(Cc3cccc(Cl)c3)cn2)ccc1=O [Compound 73, N-(5-(3-chlorobenzyl)pyridin-2-yl)-1-isopropyl-6-oxo-1,6-dihydropyridazine-3-carboxamide] | – | 8080 | – | 170
O=C(Nc1ccc(Cc2cc(F)cc(Cl)c2)cn1)c1ccc(=O)n(C2CC2)n1 [Compound 74, N-(5-(3-chloro-5-fluorobenzyl)pyridin-2-yl)-1-cyclopropyl-6-oxo-1,6-dihydropyridazine-3-carboxamide] | – | 250 | – | 10
O=C(Nc1ccc(Cc2cccc(F)c2)cn1)c1ccc(=O)n(C2CC2)n1 [Compound 75, 1-cyclopropyl-N-(5-(3-fluorobenzyl)pyridin-2-yl)-6-oxo-1,6-dihydropyridazine-3-carboxamide] | – | 1490 | – | 10
O=C(Nc1ccc(Cc2ccc(F)c(Cl)c2)cn1)c1ccc(=O)n(C2CC2)n1 [Compound 76, N-(5-(3-chloro-4-fluorobenzyl)pyridin-2-yl)-1-cyclopropyl-6-oxo-1,6-dihydropyridazine-3-carboxamide] | – | 10 | – | 10
O=C(Nc1ccc(Cc2cccc(F)c2)cn1)c1ccc(=O)n(CC2CC2)n1 [Compound 77, 1-(cyclopropylmethyl)-N-(5-(3-fluorobenzyl)pyridin-2-yl)-6-oxo-1,6-dihydropyridazine-3-carboxamide] | – | > 45000 | – | 6730
CCn1cc(C(=O)Nc2ccc(Cc3cc(F)cc(OC)c3)cn2)ccc1=O [Compound 78, 1-ethyl-N-(5-(3-fluoro-5-methoxybenzyl)pyridin-2-yl)-6-oxo-1,6-dihydropyridine-3-carboxamide] | – | > 45000 | – | 640
CCn1cc(NC(=O)c2ccc(Cc3cc(F)cc(Cl)c3)cn2)ccc1=O [Compound 79, 5-(3-Chloro-5-fluorobenzyl)-N-(1-ethyl-6-oxo-1,6-dihydropyridin-3-yl)picolinamide] | – | 5190 | – | 10
CCn1cc(C(=O)Nc2ccc(Cc3ccc(F)cc3)cn2)ccc1=O [Compound 81, 1-ethyl-N-(5-(4-fluorobenzyl)pyridin-2-yl)-6-oxo-1,6-dihydropyridine-3-carboxamide] | – | > 45000 | – | 2420
CCn1cc(C(=O)Nc2ccc(Cc3ccc(F)c(Cl)c3)cn2)ccc1=O [Compound 82, N-(5-(3-chloro-4-fluorobenzyl)pyridin-2-yl)-1-ethyl-6-oxo-1,6-dihydropyridine-3-carboxamide] | – | > 45000 | – | 30
CC(C)n1cc(C(=O)Nc2ccc(Cc3cccc(Cl)c3)cn2)ccc1=O [Compound 83, N-(5-(3-chlorobenzyl)pyridin-2-yl)-1-isopropyl-6-oxo-1,6-dihydropyridine-3-carboxamide] | 420 | > 45000 | – | –
CCn1cc(C(=O)Nc2ccc(Cc3cccc(Cl)c3)cn2)ccc1=O [Compound 84, N-(5-(3-chlorobenzyl)pyridin-2-yl)-1-ethyl-6-oxo-1,6-dihydropyridine-3-carboxamide] | – | 6660 | – | 370
CN1N=C(NC(=O)c2ccc(Cc3cccc(Cl)c3)cn2)CCC1=O [Compound 86, 5-(3-Chlorobenzyl)-N-(1-methyl-6-oxo-1,4,5,6-tetrahydropyridazin-3-yl)picolinamide] | – | 9690 | – | 70

Reference: patent US20230078764A1 (Yumanity Therapeutics, Inc., priority 2019, published 2023)
